The results in this text go back to PubChem BioAssay (NCI).

Test in all cases: DTP human tumour cell line panel, 48 h
In assay [1] the test system is A549 NSCLC.
The test system of assay [2] is ACHN renal.
The subject of assay [3] is BT-549 breast.
In assay [4] the test system is CAKI-1 renal.
Assay [5] relates to DU-145 prostate.
In assay [6] the test system is HCT-116 colon.
For assay [7], the system named is HS 578T breast.
Assay [8] deals with HT29 colon.
In assay [9] the test system is NCI/ADR-RES ovarian.
In assay [10] the test system is RPMI-8226 leukemia.
The test system of assay [11] is SF-268 CNS.
The subject of assay [12] is SF-295 CNS.
In assay [13] the test system is SK-MEL-2 melanoma.
In assay [14] the test system is SK-MEL-5 melanoma.
For assay [15], the system named is SK-OV-3 ovarian.
Assay [16] relates to SW-620 colon.
The test system of assay [17] is U251 CNS.
Assay [18] relates to COLO 205 colon.
Assay [19] deals with KM12 colon.
In assay [20] the test system is MCF7 breast.

Each structure is given as a SMILES string.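 Briefly, cells in 96-well plates were exposed to five compound concentrations for 48 h, and endpoints were estimated by linear interpolation. Definition used: TGI = concentration required for complete inhibition of growth.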

Usually TGI stands for the concentration at which net growth stops. Higher therefore signals less potent growth arrest. In the case of `CC(C)(C)C1CCC2c3c([nH]c4ccccc34)C3C(=O)N(c4ccccc4Cl)C(=O)C3C2C1` (stereo not given), the TGI in [1] is 86.5 µM; in assay [2], 70.2 µM; in assay [3], 61.6 µM; in assay [4] it was 37.1 µM; in assay [5], 42.7 µM; in [6], 14.3 µM. In addition, the TGI in assay [7] is 35.3 µM; in assay [8], 28.4 µM; in [9] it was 44 µM; in [10], over 100 µM; in assay [11] it was 35.5 µM; in assay [12], 57.2 µM. In addition, the TGI in assay [13] is 35 µM; in [14], 28.7 µM; in assay [15], over 100 µM; in assay [16], 22.7 µM; in assay [17], 50.6 µM.

`O=C(NNC1=NCCCN1)c1ccco1`: the TGI in assay [1], in [2], in [3], in assay [18], in assay [5] and in [6] was over 100 µM in each case. Moreover, the TGI in assay [7], in assay [8], in assay [19], in assay [20], in [9] and in assay [10] was over 100 µM in each case. The TGI in assay [11], in assay [12], in assay [13], in assay [14], in [15] and in assay [16] was over 100 µM in each case. In [17], this molecule registered a total growth inhibition concentration (TGI) of over 100 µM.

As to `CC12CCC(=O)N1c1cncnc1N2` (stereo not given), the TGI in assay [1], in assay [2], in assay [3], in assay [5], in assay [6] and in assay [7] was over 10 µM throughout. The TGI in assay [8], in assay [19], in assay [20], in assay [9], in assay [11] and in [12] was over 10 µM throughout. Moreover, the TGI in assay [13], in [15], in [16] and in [17] was over 10 µM in each case.

For `CC(=O)NCCCCN(CCCNC(C)=O)C(=O)CNS(=O)(=O)c1cccc2c(N(C)C)cccc12`, the TGI in assay [1], in [2], in [3], in assay [18], in [5] and in assay [6] was over 100 µM throughout. Further, the TGI in assay [7], in assay [8], in assay [20], in [10], in assay [11] and in [12] was over 100 µM throughout. Further, the TGI in [13], in assay [14], in [15], in assay [16] and in assay [17] was over 100 µM in each case.

For `Oc1[nH]c(=S)[nH]c1/C=C1/C(c2ccccc2)=Nc2ccccc21`, the TGI in assay [2] came to 78 µM; in [3], 28.6 µM; in assay [4], 37.5 µM; in [18], 31.8 µM; in assay [6], 27.5 µM; in assay [7], 42.4 µM. The TGI is 30.5 µM in assay [8]; 29.3 µM in [19]; 28.5 µM in assay [20]; 51.7 µM in assay [9]; 36.2 µM in assay [10]; over 100 µM in [11]. The TGI in [12] is 26.5 µM; in assay [13], 26 µM; in [14], 25.8 µM; in [16], 31.9 µM; in assay [17], 34.9 µM.

As to `CC(O)CN1c2ccccc2Sc2ccccc21` (stereo not given), the concentration for total growth inhibition (TGI) in assay [1], in assay [2], in assay [3], in [4], in [18] and in assay [5] was over 100 µM in each case. Further, the concentration for total growth inhibition (TGI) in [6], in assay [7], in assay [8], in assay [19], in assay [20] and in assay [9] was over 100 µM throughout. Besides, the total growth inhibition concentration (TGI) in assay [11], in [12], in assay [14], in [15], in assay [16] and in assay [17] was over 100 µM in each case.

Take `O=c1oc2ccccc2c(O)c1C(c1cnc2ccccc2c1)c1c(O)c2ccccc2oc1=O`: the concentration for total growth inhibition (TGI) in assay [3] is 68 µM; in assay [4], over 100 µM; in assay [18], over 100 µM; in assay [5] it was over 100 µM; in assay [6] it was over 100 µM; in assay [7], 80.6 µM. The TGI was over 100 µM in assay [8]; over 100 µM in assay [19]; over 100 µM in [9]; over 100 µM in assay [10]; 67.2 µM in assay [11]; over 100 µM in assay [13]. Besides, the TGI in [14], in assay [16] and in assay [17] was over 100 µM throughout.

Regarding `CC[C@]12C=CCN3CCC4(c5cc([C@@]6(C(=O)OC)CC7CN(CCc8c6[nH]c6ccccc86)C[C@@H]6CCCC[C@H]76)c(OC)cc5N(C)C4[C@](O)(C(=O)OC)C1OC(C)=O)[C@@H]32` (stereo not given in full), the TGI was 14.6 µM in assay [1]; 5.53 µM in [2]; 21.2 µM in [3]; 16.7 µM in [4]; under 0.01 µM in [18]; 14.8 µM in [5]. In addition, the TGI in [6] is 1.73 µM; in assay [7], under 0.01 µM; in assay [8], under 0.01 µM; in assay [9], 0.0886 µM; in [10], 32.1 µM; in [11], 16.5 µM. The TGI is 7.85 µM in assay [13], under 0.01 µM in assay [14], 16 µM in assay [16] and under 0.01 µM in assay [17].

Consider `O=c1cc(NNCc2ccccc2)[nH]c(=O)[nH]1`, for which the TGI in assay [1], in [2], in assay [3], in assay [4], in [18] and in assay [5] was over 100 µM in each case. The TGI in [7], in [8], in [19], in assay [20], in [9] and in assay [10] was over 100 µM each time. The TGI in assay [11], in assay [12], in assay [14], in assay [16] and in assay [17] was over 100 µM in each case.

With `Cc1c2c(nc3ccccc13)C(=O)c1cccnc1C2=O`, the TGI in assay [1] was 21.7 µM; in [2] it was over 100 µM; in [3], over 100 µM; in [18], 48.7 µM; in [5] it was over 100 µM; in [6], 18.8 µM. The TGI in assay [7] was over 100 µM; in assay [8] it was 54.2 µM; in assay [19], over 100 µM; in [20], 30.1 µM; in assay [9], over 100 µM; in assay [10], over 100 µM. The TGI in [11] is over 100 µM; in assay [12] it was 97.1 µM; in assay [14], 1.48 µM; in assay [15], over 100 µM; in [16] it was over 100 µM; in assay [17], over 100 µM.

Consider `O=C1C2CCCCC2C(=O)N1n1c(-c2ccccc2)n[nH]c1=O` (stereo not given), for which the TGI in assay [1], in assay [2], in assay [3], in assay [4], in assay [18] and in [6] was over 100 µM in each case. Moreover, the TGI in [7], in [8], in assay [19], in assay [20], in [9] and in [10] was over 100 µM in each case. Besides, the TGI in assay [11], in assay [12], in assay [13], in assay [14], in [15] and in assay [16] was over 100 µM in each case. The TGI in [17] is over 100 µM.

As for `O=C(O)c1ccccc1CC1Cc2cc3c(cc2C1)CCC3`, the TGI in assay [1], in assay [2], in [3], in assay [18], in assay [5] and in [6] was over 100 µM in each case. Further, the TGI in assay [7], in assay [8], in assay [19], in assay [20], in assay [9] and in assay [10] was over 100 µM each time. Besides, the TGI in [11], in [12], in [13], in assay [14], in assay [15] and in [16] was over 100 µM in each case. Also, the TGI in assay [17] was over 100 µM.

For `CCOC(=O)C(NC(C)=O)(Nc1ccc(S(N)(=O)=O)cc1)C(F)(F)F` (stereo not given), the TGI in assay [1], in [2], in assay [4], in assay [18], in [5] and in assay [6] was over 100 µM in each case. The TGI in assay [7], in assay [8], in assay [19], in assay [20], in [9] and in assay [10] was over 100 µM throughout. The TGI in [11], in [12], in [13], in assay [14], in [15] and in assay [16] was over 100 µM each time. For the same molecule, the TGI in assay [17] is over 100 µM.

With `CC1(C)C2CCC1(C)C(OC(=O)/C=C/C(=O)OC1CC3CCC1(C)C3(C)C)C2` (stereo not given), the TGI in assay [1], in [2], in [3], in assay [4], in assay [18] and in [5] was over 100 µM each time. The TGI was over 100 µM in assay [6]; over 100 µM in [7]; over 100 µM in assay [8]; over 100 µM in [19]; 67.4 µM in [20]; over 100 µM in [9]. In addition, the TGI in assay [11], in [12], in assay [13], in assay [14], in assay [16] and in [17] was over 100 µM each time.

In the case of `COc1ccc2c(=O)cc(-c3ccc(OC)c(OC)c3OC)oc2c1`, the TGI in [1] was over 31.6 µM; in assay [2], over 100 µM; in assay [3], over 100 µM; in assay [4] it was over 100 µM; in assay [18] it was over 100 µM; in assay [5], over 100 µM. Besides, the TGI in assay [6] is over 100 µM; in [7], over 100 µM; in [8], over 100 µM; in assay [19], over 85.7 µM; in assay [9] it was over 100 µM; in assay [10], 53.9 µM. Further, the TGI in assay [11], in assay [12], in assay [14], in assay [15], in assay [16] and in assay [17] was over 100 µM each time.

Consider `CC(C)CCNC(=O)C(CC(C)C)NC(=O)[C@H]1O[C@@H]1C(=O)O` (stereo not given in full), for which the TGI in assay [1], in [3], in assay [4], in [18], in assay [5] and in assay [6] was over 100 µM in each case. Further, the TGI in assay [7], in assay [8], in assay [19], in assay [20], in [9] and in [11] was over 100 µM each time. Besides, the total growth inhibition concentration (TGI) in [12], in assay [14], in assay [15], in assay [16] and in [17] was over 100 µM each time.
